Values quoted from earlier work as cited in patent publication US5614213A, “Use of estriol for treatment of climacteric osteoporosis” (priority 1992, dated 1997).

Experiments:
[1] = test system: arteriosclerotic vascular changes; details: hormone replacement; cited from earlier work
[2] = test system: osteoporosis; details: hormone replacement; cited from earlier work
[3] = test system: ovulation in women; details: lower dosages than 5 mg/day; cited from earlier work

SMILES | effect on arteriosclerotic vascular changes [1] | prevention of osteoporosis in the climacteric [2] | suppression of ovulation in women [3]
C[C@]12CC[C@@H]3c4ccc(O)cc4CC[C@H]3[C@@H]1CC[C@@H]2O [estradiol] | can slow the advance of arteriosclerotic vascular changes | can prevent advancing osteoporosis in the climacteric | clearly possible
C[C@]12CC[C@@H]3c4ccc(O)cc4CC[C@H]3[C@@H]1CCC2=O [estrone] | can slow the advance of arteriosclerotic vascular changes | can prevent advancing osteoporosis in the climacteric | 
